Patent publication US7638518B2, “Substituted pyrazole kinase inhibitors” (Janssen Pharmaceutica, priority 2006, dated 2009)

What was measured:
[1] = system: A375 malignant melanoma; assay: Cell proliferation inhibition assay (14C-thymidine incorporation), A375; type: cell-based; settings: Homo sapiens, A-375, A375 cells
From the text: (§1) The ability of a test compound to inhibit unregulated cell proliferation may be determined by measuring incorporation of ^14C-labelled thymidine into newly synthesized DNA within cell lines derived from carcinomas originating from several tissues. Accordingly, the anti-proliferative effect of a compound on cells with a variety of phenotypes may be determined.
(§2) Carcinoma cell lines include those such as HeLa cervical adenocarcinoma (American Type Culture Collection (ATCC), Virginia, Cat. #CCL-2), A375 malignant melanoma (ATCC CRL-1619), and HCT-116 colon carcinoma (CCL-247).
(§3) The carcinoma cells are trypsinized and counted. The cells (3000-8000 count) are added to each well of a 96-well CytoStar tissue culture treated scintillating microplate (Amersham #RPNQ0160) in complete medium (100 μL) and the plate is then incubated in complete medium for 24 hrs at 37° C. in an inert atmosphere containing 5% CO2. Test compound (1 μL) in 100% DMSO is added to the plate test-wells with DMSO only added to control-wells. The plate is incubated in complete medium for a second 24 hr period at 37° C. in an atmosphere containing 5% CO2.
(§4) An aliquot of a solution of Methyl ^14C-thymidine (56 mC/mmol) (NEN #NEC568 or Amersham #CFA532) and complete medium (20 uL to provide 0.2 μCi/well) is then added to each well and the plate is incubated for a third 24 hr period at 37° C. in an atmosphere containing 5% CO2. The plate contents are then discarded, the plate is washed twice with PBS (200 μL) and then PBS (200 μL) is added to each well. The plate is sealed and the degree of methyl ^14C-thymidine incorporation is quantified on a Packard Top Count.
(§5) A maximum and minimum signal for the assay was determined on each plate. The percent inhibition of a test compound was calculated according to the formula: […]
(§6) For a series of test concentrations, the IC50 was derived by graphing percent inhibition against the log of the concentrations tested for a given compound with results shown in Table 3.

[2] = system: HCT-116 colon carcinoma; assay: Cell proliferation inhibition assay (14C-thymidine incorporation), HCT-116; type: cell-based; settings: Homo sapiens, HCT-116 cells
From the text: as §1, §2, §3, §4, §5, §6

[3] = system: HeLa cervical adenocarcinoma; assay: Cell proliferation inhibition assay (14C-thymidine incorporation), HeLa; type: cell-based; settings: Homo sapiens, HeLa cells
From the text: as §1, §2, §3, §4, §5, §6

[4] = biological target: T1, CDK1 (Homo sapiens, UniProt P06493); assay: CDK-1 kinase screening assay (33P-ATP FlashPlate); type: biochemical; settings: 10 μM ATP, biotinylated histone-H1 peptide substrate, 1 hr at 30° C.
T1 construct: purchased New England Biolabs, Beverly, Mass; 6020; host or cells: insect cells
T1 sequence (P06493 whole entry): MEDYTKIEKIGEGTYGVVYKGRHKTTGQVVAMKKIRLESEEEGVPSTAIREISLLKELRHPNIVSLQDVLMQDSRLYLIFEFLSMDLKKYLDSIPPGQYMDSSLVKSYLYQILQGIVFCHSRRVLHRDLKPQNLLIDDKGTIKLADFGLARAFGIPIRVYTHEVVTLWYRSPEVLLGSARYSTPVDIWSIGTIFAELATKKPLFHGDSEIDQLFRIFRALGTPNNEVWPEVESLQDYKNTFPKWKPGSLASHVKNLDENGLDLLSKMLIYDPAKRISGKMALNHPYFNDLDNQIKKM
T1 sequence (P14635 whole entry partner): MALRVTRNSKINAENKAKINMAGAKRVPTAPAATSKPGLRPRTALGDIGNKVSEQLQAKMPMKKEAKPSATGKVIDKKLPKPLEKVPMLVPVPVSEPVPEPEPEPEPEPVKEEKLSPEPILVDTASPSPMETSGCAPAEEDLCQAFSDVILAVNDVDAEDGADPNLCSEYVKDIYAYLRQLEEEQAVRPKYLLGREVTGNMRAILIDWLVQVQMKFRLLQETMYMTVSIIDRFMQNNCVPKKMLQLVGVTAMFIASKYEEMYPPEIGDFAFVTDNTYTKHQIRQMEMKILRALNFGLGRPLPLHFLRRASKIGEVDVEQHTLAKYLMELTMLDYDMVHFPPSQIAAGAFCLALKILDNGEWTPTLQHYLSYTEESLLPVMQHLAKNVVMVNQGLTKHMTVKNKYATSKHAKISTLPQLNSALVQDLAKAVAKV
Method: (§7) A kinase reaction mixture was prepared containing 50 mM Tris-HCl pH=8, 10 mM MgCl2, 0.1 mM […], 1 mM DTT, 10 μM ATP, 0.025 μM biotinylated histone-H1 peptide substrate and 0.2 μCuries per well ^33P-γ-ATP (2000-3000 Ci/mmol). 70 μL of the kinase reaction mixture was dispensed into the well of a streptavidin coated FlashPlate™ (Cat. # SMP103, NEN, Boston, Mass.).
(§8) Test compound stock in 100% DMSO (1 μL) was added to the wells resulting in a final concentration of 1% DMSO in the reaction with a 100 μL final reaction volume. Each enzyme was diluted in 50 mM Tris-HCl pH=8.0, 0.1% BSA and 30 μL was added to each well to initiate the reaction. The reaction was incubated for one hour at 30° C. At the end of the 1 hr incubation, the reaction was terminated by aspirating the mixture from the plate and washing the wells twice with PBS containing 100 mM EDTA. The biotinylated peptide substrate became immobilized on the Flashplate™ and the incorporation of ^33P-γ-ATP was measured by reading the plate on a scintillation counter. Inhibition of the enzymatic activity was measured by observing a reduced amount of ^33P-γ-ATP incorporated into the immobilized peptide.
The CDK1 enzyme was isolated from insect cells expressing both the human CDK1 catalytic subunit (Accession number NM_001786) and its positive regulatory subunit cyclin B (New England Biolabs, Beverly, Mass.; Cat. # 6020). The assay used 30 ng of the N-terminal biotinylated peptide biotin-[…]-amide (Cyclin dependent kinase 1) per well.
(§9) Aurora-A is a fusion protein containing a polyhistidine tag at the N terminus followed by the full length protein encoding the murine Aurora-A (Accession number GB BC014711) expressed and purified from sf9 insect cells. The assay used 400 ng of the N-terminal biotinylated peptide biotin-[…]-amide (Aurora-A) per well. A maximum and minimum signal for the assay was determined on each plate. The percent inhibition of a test compound was calculated according to the formula: […]
(§10) For a series of test concentrations, the IC50 was derived by graphing percent inhibition against the log of the concentrations tested for a given compound with results shown in Table 1.

[5] = biological target: T2, VEGFR2 (Rattus norvegicus, UniProt O08775); assay: VEGFR2 kinase screening assay (33P-ATP FlashPlate); type: biochemical; settings: 10 μM ATP, rat VEGF-R2 kinase domain, 1 hr at 30° C.
T2 construct: polyhistidine (N)
T2 sequence (O08775 786-1343): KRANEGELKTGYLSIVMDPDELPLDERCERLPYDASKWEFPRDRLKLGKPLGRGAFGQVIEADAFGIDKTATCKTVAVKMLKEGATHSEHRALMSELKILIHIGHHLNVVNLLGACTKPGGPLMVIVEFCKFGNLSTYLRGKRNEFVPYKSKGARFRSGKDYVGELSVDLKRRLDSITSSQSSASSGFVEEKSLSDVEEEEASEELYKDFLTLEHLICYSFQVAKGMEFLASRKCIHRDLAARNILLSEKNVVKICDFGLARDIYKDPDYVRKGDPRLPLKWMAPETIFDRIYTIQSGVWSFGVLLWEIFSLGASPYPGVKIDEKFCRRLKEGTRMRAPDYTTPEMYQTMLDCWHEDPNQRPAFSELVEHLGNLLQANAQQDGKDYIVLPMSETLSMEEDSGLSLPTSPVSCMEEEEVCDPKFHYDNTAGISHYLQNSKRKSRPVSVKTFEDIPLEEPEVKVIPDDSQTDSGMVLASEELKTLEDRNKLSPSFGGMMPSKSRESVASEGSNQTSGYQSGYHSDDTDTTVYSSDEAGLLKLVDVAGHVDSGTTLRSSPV

[6] = biological target: T3, Aurora-A (Mus musculus, UniProt P97477); assay: Aurora-A kinase screening assay (33P-ATP FlashPlate); type: biochemical; settings: 10 μM ATP, murine full length Aurora-A, 1 hr at 30° C.
T3 construct: followed by the full length protein encoding the murine Aurora-A; polyhistidine (N); made in house; host or cells: sf9 insect cells
T3 sequence (P97477 1-395): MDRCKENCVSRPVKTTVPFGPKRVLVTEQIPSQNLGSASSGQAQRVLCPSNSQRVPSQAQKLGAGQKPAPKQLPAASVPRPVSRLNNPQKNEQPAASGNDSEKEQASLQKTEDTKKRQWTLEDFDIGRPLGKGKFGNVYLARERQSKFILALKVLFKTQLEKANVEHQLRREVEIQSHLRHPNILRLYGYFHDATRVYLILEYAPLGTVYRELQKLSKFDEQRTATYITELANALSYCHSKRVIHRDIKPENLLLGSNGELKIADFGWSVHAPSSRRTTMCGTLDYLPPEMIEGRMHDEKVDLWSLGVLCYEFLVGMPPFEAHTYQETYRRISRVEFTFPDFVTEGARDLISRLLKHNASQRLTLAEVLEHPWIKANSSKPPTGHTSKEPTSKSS

[7] = biological target: T4, HER2 (Homo sapiens, UniProt P04626); assay: HER2 kinase screening assay (33P-ATP FlashPlate); type: biochemical; settings: 10 μM ATP, biotin-poly(GT) 4:1 substrate, 1 hr at 30° C.
T4 construct: GST (Glutathione-S-Transferase) (N); HIS6 (N); Thrombin cleavage site (N); purchased Proqinase, Freiburg, Germany
T4 sequence (P04626 679-1255): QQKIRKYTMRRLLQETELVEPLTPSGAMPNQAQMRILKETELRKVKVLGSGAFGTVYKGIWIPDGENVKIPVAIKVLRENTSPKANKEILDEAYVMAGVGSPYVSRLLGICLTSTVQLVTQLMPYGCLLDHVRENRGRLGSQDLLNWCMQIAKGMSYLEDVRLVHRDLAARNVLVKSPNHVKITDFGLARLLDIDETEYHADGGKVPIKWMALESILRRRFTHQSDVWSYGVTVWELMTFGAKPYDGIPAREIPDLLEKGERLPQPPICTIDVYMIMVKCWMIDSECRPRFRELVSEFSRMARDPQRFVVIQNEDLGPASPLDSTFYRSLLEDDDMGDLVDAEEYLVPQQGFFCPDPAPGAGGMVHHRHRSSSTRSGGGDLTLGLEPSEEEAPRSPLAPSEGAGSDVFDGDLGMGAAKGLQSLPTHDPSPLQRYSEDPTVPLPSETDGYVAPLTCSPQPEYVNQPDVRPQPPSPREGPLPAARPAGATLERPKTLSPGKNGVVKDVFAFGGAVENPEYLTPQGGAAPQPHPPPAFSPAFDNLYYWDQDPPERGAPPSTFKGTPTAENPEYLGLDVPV
Method: as §7, §8
The HER2 construct consisted of a fusion of GST (Glutathione-S-Transferase), HIS6 Thrombin and the nucleotides encoding amino acids 679 to 1255 of HER-2 (Accession number M11730) (Proqinase, Freiburg, Germany). The assay used 200 ng of the N-terminal biotinylated peptide biotin-poly(GT) 4:1 (HER2) per well.
as §9, §10

Row | Structure (SMILES) | IC50 [1] | IC50 [2] | IC50 [3] | IC50 [4] | IC50 [5] | IC50 [6] | IC50 [7]
1 | COc1ccc2nc(-c3n[nH]cc3C=Cc3cncc4ccccc34)[nH]c2c1 [Cpd 6, 4-{2-[3-(6-methoxy-1H-benzoimidazol-2-yl)-1H-pyrazol-4-yl]-vinyl}-isoquinoline] | 2960 nM | 2680 nM | 2820 nM | 148 nM | 613 nM |  | 
2 | COc1ccc2nc(-c3n[nH]cc3C=Cc3cccnc3)[nH]c2c1 [Cpd 2, 6-methoxy-2-[4-(2-pyridin-3-yl-vinyl)-1H-pyrazol-3-yl]-1H-benzoimidazole] | 2500 nM | 2160 nM | 1800 nM | 32.8 nM | 967 nM | 513 nM | 
3 | COc1cncc(C=Cc2c[nH]nc2-c2nc3ccc(OC)cc3[nH]2)c1 [Cpd 10, 6-methoxy-2-{4-[2-(5-methoxy-pyridin-3-yl)-vinyl]-1H-pyrazol-3-yl}-1H-benzoimidazole] | 913 nM | 748 nM | 886 nM | 46.6 nM | 653 nM | 399 nM | 12000 nM
4 | CN1CCN(c2ccc3nc(-c4n[nH]cc4C=Cc4cccnc4)[nH]c3c2)CC1 [Cpd 8, 6-(4-methyl-piperazin-1-yl)-2-[4-(2-pyridin-3-yl-vinyl)-1H-pyrazol-3-yl]-1H-benzoimidazole] | 864 nM | 194 nM | 464 nM | 29.1 nM | 286 nM | > 10000 nM | 9320 nM
5 | COc1ccc2nc(-c3n[nH]cc3C=Cc3cnccc3C)[nH]c2c1 [Cpd 5, 6-methoxy-2-{4-[2-(4-methyl-pyridin-3-yl)-vinyl]-1H-pyrazol-3-yl}-1H-benzoimidazole] | 4300 nM | 3190 nM | 2760 nM | 157 nM |  | 549 nM | 
6 | COc1ccc2nc(-c3n[nH]cc3C=Cc3ccc(N)nc3)[nH]c2c1 [Cpd 3, 5-{2-[3-(6-Methoxy-1H-benzoimidazol-2-yl)-1H-pyrazol-4-yl]-vinyl}-pyridin-2-ylamine] | 1030 nM | 1040 nM | 992 nM | 23 nM | 636 nM | 625 nM | 6840 nM
7 | CCNC(=O)c1cncc(C=Cc2c[nH]nc2-c2nc3ccc(OC)cc3[nH]2)c1 [Cpd 11, N-ethyl-5-{2-[3-(6-methoxy-1H-benzoimidazol-2-yl)-1H-pyrazol-4-yl]-vinyl}-nicotinamide] | 3620 nM | 2460 nM | 3700 nM | 111 nM | 1350 nM | > 100000 nM | 36600 nM
8 | COc1ccc2nc(-c3n[nH]cc3C=Cc3cncc(C#N)c3)[nH]c2c1 [Cpd 7, 5-{2-[3-(6-methoxy-1H-benzoimidazol-2-yl)-1H-pyrazol-4-yl]-vinyl}-nicotinonitrile] |  |  |  | > 1000 nM | 1730 nM | 4190 nM | 
9 | COC(=O)c1cncc(C=Cc2c[nH]nc2-c2nc3ccc(OC)cc3[nH]2)c1 [Cpd 9, 5-{2-[3-(6-methoxy-1H-benzoimidazol-2-yl)-1H-pyrazol-4-yl]-vinyl}-nicotinic acid methyl ester] | 3100 nM | 3130 nM | 4370 nM | 886 nM | 1280 nM | > 100000 nM | 
10 | CCNCc1cncc(C=Cc2c[nH]nc2-c2nc3ccc(OC)cc3[nH]2)c1 [Cpd 1, ethyl-(5-{2-[3-(6-methoxy-1H-benzoimidazol-2-yl)-1H-pyrazol-4-yl]-vinyl}-pyridin-3-ylmethyl)-amine] | 553 nM | 187 nM | 615 nM | 4.59 nM | 821 nM | 588 nM | 3030 nM
